Test results taken from ChEMBL document CHEMBL1151652, “Constituents of Erysimum inconspicuum. Two sulfur-containing lactone compounds” (1985).
Converted amounts (≈) assume the structure as drawn.

Test system: KB
Assay: Cytotoxicity against human KB cells
Assay type: functional
Conditions: read-out: ED50 (the source's name)

Compound | EC50 [µg/mL]
CS(=O)(=O)CC[C@H]1CCC(=O)O1 [ERYSULFONE] | 21 (≈ 109 µM)
C[S+]([O-])CC[C@H]1CCC(=O)O1 (stereo partly drawn) [ERYSULFOXIDE] | 2.3 (≈ 13.1 µM)
C[C@]12CC[C@H]3[C@@H](CC[C@]4(O)C[C@@H](O)CC[C@]34C=O)[C@@]1(O)CC[C@@H]2C1=CC(=O)OC1 [STROPHANTHIDIN] | 0.44 (≈ 1.09 µM)
